# Assay results published in the NIST ThermoML archive (doi:10.1016/j.fluid.2014.05.031).
# Numbers after ± are expanded uncertainties.
# Test: excess molar enthalpy (molar enthalpy of mixing); xn = mol fraction of the nth substance listed
# Conditions: Liquid, Flow calorimetry
compound,measurement,setting,value
CCO [ethanol] + O,excess molar enthalpy,"333.15 K, 1824 kPa, x1 = 0.0079",-0.00954 ± 0.00098 kcal/mol
same,excess molar enthalpy,"333.15 K, 1824 kPa, x1 = 0.016",-0.019 ± 0.00103 kcal/mol
same,excess molar enthalpy,"333.15 K, 1824 kPa, x1 = 0.0333",-0.037 ± 0.000956 kcal/mol
same,excess molar enthalpy,"333.15 K, 1824 kPa, x1 = 0.0519",-0.0519 ± 0.0012 kcal/mol
same,excess molar enthalpy,"333.15 K, 1824 kPa, x1 = 0.0719",-0.0636 ± 0.0012 kcal/mol
same,excess molar enthalpy,"333.15 K, 1824 kPa, x1 = 0.0936",-0.071 ± 0.0012 kcal/mol
same,excess molar enthalpy,"333.15 K, 1824 kPa, x1 = 0.1172",-0.0736 ± 0.0012 kcal/mol
same,excess molar enthalpy,"333.15 K, 1824 kPa, x1 = 0.143",-0.0731 ± 0.0012 kcal/mol
same,excess molar enthalpy,"333.15 K, 1824 kPa, x1 = 0.1712",-0.0688 ± 0.0012 kcal/mol
same,excess molar enthalpy,"333.15 K, 1824 kPa, x1 = 0.2023",-0.0619 ± 0.0012 kcal/mol
same,excess molar enthalpy,"333.15 K, 1824 kPa, x1 = 0.2366",-0.0552 ± 0.0012 kcal/mol
same,excess molar enthalpy,"333.15 K, 1824 kPa, x1 = 0.2747",-0.0454 ± 0.0012 kcal/mol
same,excess molar enthalpy,"333.15 K, 1824 kPa, x1 = 0.3173",-0.0351 ± 0.000956 kcal/mol
same,excess molar enthalpy,"333.15 K, 1824 kPa, x1 = 0.3653",-0.0241 ± 0.000956 kcal/mol
same,excess molar enthalpy,"333.15 K, 1824 kPa, x1 = 0.4196",-0.0125 ± 0.00098 kcal/mol
same,excess molar enthalpy,"333.15 K, 1824 kPa, x1 = 0.4818",-0.00174 ± 0.00098 kcal/mol
same,excess molar enthalpy,"333.15 K, 1824 kPa, x1 = 0.5535",0.00655 ± 0.00098 kcal/mol
same,excess molar enthalpy,"333.15 K, 1824 kPa, x1 = 0.6372",0.00999 ± 0.00098 kcal/mol
same,excess molar enthalpy,"333.15 K, 1824 kPa, x1 = 0.7361",0.00746 ± 0.00098 kcal/mol
same,excess molar enthalpy,"333.15 K, 1824 kPa, x1 = 0.8548",0.000143 ± 0.00098 kcal/mol
same,excess molar enthalpy,"333.15 K, 1824 kPa, x1 = 0.9236",-0.0037 ± 0.00098 kcal/mol
same,excess molar enthalpy,"333.15 K, 1824 kPa, x1 = 0.9608",-0.00289 ± 0.00098 kcal/mol
same,excess molar enthalpy,"363.15 K, 1203 kPa, x1 = 0.0079",-0.00268 ± 0.00098 kcal/mol
same,excess molar enthalpy,"363.15 K, 1203 kPa, x1 = 0.016",-0.00562 ± 0.00098 kcal/mol
same,excess molar enthalpy,"363.15 K, 1203 kPa, x1 = 0.0333",-0.0111 ± 0.00098 kcal/mol
same,excess molar enthalpy,"363.15 K, 1203 kPa, x1 = 0.0518",-0.0141 ± 0.001 kcal/mol
same,excess molar enthalpy,"363.15 K, 1203 kPa, x1 = 0.0719",-0.014 ± 0.001 kcal/mol
same,excess molar enthalpy,"363.15 K, 1203 kPa, x1 = 0.0936",-0.0108 ± 0.00098 kcal/mol
same,excess molar enthalpy,"363.15 K, 1203 kPa, x1 = 0.1172",-0.00483 ± 0.00098 kcal/mol
same,excess molar enthalpy,"363.15 K, 1203 kPa, x1 = 0.143",0.00375 ± 0.00098 kcal/mol
same,excess molar enthalpy,"363.15 K, 1203 kPa, x1 = 0.1712",0.0131 ± 0.001 kcal/mol
same,excess molar enthalpy,"363.15 K, 1203 kPa, x1 = 0.2022",0.0237 ± 0.00103 kcal/mol
same,excess molar enthalpy,"363.15 K, 1203 kPa, x1 = 0.2365",0.0344 ± 0.000956 kcal/mol
same,excess molar enthalpy,"363.15 K, 1203 kPa, x1 = 0.2746",0.0457 ± 0.0012 kcal/mol
same,excess molar enthalpy,"363.15 K, 1203 kPa, x1 = 0.3173",0.0576 ± 0.0012 kcal/mol
same,excess molar enthalpy,"363.15 K, 1203 kPa, x1 = 0.3652",0.0688 ± 0.0012 kcal/mol
same,excess molar enthalpy,"363.15 K, 1203 kPa, x1 = 0.4196",0.0793 ± 0.0012 kcal/mol
same,excess molar enthalpy,"363.15 K, 1203 kPa, x1 = 0.4817",0.0858 ± 0.0012 kcal/mol
same,excess molar enthalpy,"363.15 K, 1203 kPa, x1 = 0.5534",0.0875 ± 0.0012 kcal/mol
same,excess molar enthalpy,"363.15 K, 1203 kPa, x1 = 0.6371",0.0813 ± 0.0012 kcal/mol
same,excess molar enthalpy,"363.15 K, 1203 kPa, x1 = 0.736",0.0641 ± 0.0012 kcal/mol
same,excess molar enthalpy,"363.15 K, 1203 kPa, x1 = 0.8548",0.0351 ± 0.000956 kcal/mol
same,excess molar enthalpy,"363.15 K, 1203 kPa, x1 = 0.9236",0.018 ± 0.001 kcal/mol
same,excess molar enthalpy,"383.15 K, 1500 kPa, x1 = 0.0333",0.00287 ± 0.00098 kcal/mol
same,excess molar enthalpy,"383.15 K, 1500 kPa, x1 = 0.0719",0.0147 ± 0.001 kcal/mol
same,excess molar enthalpy,"383.15 K, 1500 kPa, x1 = 0.1172",0.0339 ± 0.000956 kcal/mol
same,excess molar enthalpy,"383.15 K, 1500 kPa, x1 = 0.1712",0.0588 ± 0.0012 kcal/mol
same,excess molar enthalpy,"383.15 K, 1500 kPa, x1 = 0.2365",0.0858 ± 0.0012 kcal/mol
same,excess molar enthalpy,"383.15 K, 1500 kPa, x1 = 0.3173",0.112 ± 0.00143 kcal/mol
same,excess molar enthalpy,"383.15 K, 1500 kPa, x1 = 0.4196",0.132 ± 0.00143 kcal/mol
same,excess molar enthalpy,"383.15 K, 1500 kPa, x1 = 0.5534",0.138 ± 0.00143 kcal/mol
same,excess molar enthalpy,"383.15 K, 1500 kPa, x1 = 0.6371",0.13 ± 0.00143 kcal/mol
same,excess molar enthalpy,"383.15 K, 1500 kPa, x1 = 0.736",0.106 ± 0.00143 kcal/mol
same,excess molar enthalpy,"383.15 K, 1500 kPa, x1 = 0.7926",0.0887 ± 0.0012 kcal/mol
same,excess molar enthalpy,"383.15 K, 1500 kPa, x1 = 0.8548",0.0645 ± 0.0012 kcal/mol
same,excess molar enthalpy,"383.15 K, 1500 kPa, x1 = 0.9236",0.0349 ± 0.000956 kcal/mol
CCOC(C)=O [ethyl acetate] + CCO,excess molar enthalpy,"363.15 K, 1548 kPa, x1 = 0.0151",0.0233 ± 0.001 kcal/mol
same,excess molar enthalpy,"363.15 K, 1548 kPa, x1 = 0.0305",0.0473 ± 0.0012 kcal/mol
same,excess molar enthalpy,"363.15 K, 1548 kPa, x1 = 0.0624",0.0937 ± 0.0012 kcal/mol
same,excess molar enthalpy,"363.15 K, 1548 kPa, x1 = 0.0956",0.138 ± 0.00143 kcal/mol
same,excess molar enthalpy,"363.15 K, 1548 kPa, x1 = 0.1302",0.1809 ± 0.00167 kcal/mol
same,excess molar enthalpy,"363.15 K, 1548 kPa, x1 = 0.1664",0.2213 ± 0.00191 kcal/mol
same,excess molar enthalpy,"363.15 K, 1548 kPa, x1 = 0.2042",0.2588 ± 0.00215 kcal/mol
same,excess molar enthalpy,"363.15 K, 1548 kPa, x1 = 0.2438",0.2935 ± 0.00239 kcal/mol
same,excess molar enthalpy,"363.15 K, 1548 kPa, x1 = 0.2853",0.3284 ± 0.00263 kcal/mol
same,excess molar enthalpy,"363.15 K, 1548 kPa, x1 = 0.3288",0.3559 ± 0.00287 kcal/mol
same,excess molar enthalpy,"363.15 K, 1548 kPa, x1 = 0.3745",0.3781 ± 0.00311 kcal/mol
same,excess molar enthalpy,"363.15 K, 1548 kPa, x1 = 0.4226",0.3984 ± 0.00335 kcal/mol
same,excess molar enthalpy,"363.15 K, 1548 kPa, x1 = 0.4732",0.4104 ± 0.00335 kcal/mol
same,excess molar enthalpy,"363.15 K, 1548 kPa, x1 = 0.5265",0.4087 ± 0.00335 kcal/mol
same,excess molar enthalpy,"363.15 K, 1548 kPa, x1 = 0.5828",0.4039 ± 0.00335 kcal/mol
same,excess molar enthalpy,"363.15 K, 1548 kPa, x1 = 0.6424",0.3867 ± 0.00311 kcal/mol
same,excess molar enthalpy,"363.15 K, 1548 kPa, x1 = 0.7054",0.3552 ± 0.00287 kcal/mol
same,excess molar enthalpy,"363.15 K, 1548 kPa, x1 = 0.7724",0.305 ± 0.00263 kcal/mol
same,excess molar enthalpy,"363.15 K, 1548 kPa, x1 = 0.8435",0.2323 ± 0.00215 kcal/mol
same,excess molar enthalpy,"363.15 K, 1548 kPa, x1 = 0.9192",0.133 ± 0.00143 kcal/mol
same,excess molar enthalpy,"363.15 K, 1548 kPa, x1 = 0.9589",0.0698 ± 0.0012 kcal/mol
same,excess molar enthalpy,"413.15 K, 1307 kPa, x1 = 0.0151",0.0258 ± 0.0012 kcal/mol
same,excess molar enthalpy,"413.15 K, 1307 kPa, x1 = 0.0306",0.0531 ± 0.0012 kcal/mol
same,excess molar enthalpy,"413.15 K, 1307 kPa, x1 = 0.0624",0.105 ± 0.00143 kcal/mol
same,excess molar enthalpy,"413.15 K, 1307 kPa, x1 = 0.0956",0.154 ± 0.00167 kcal/mol
same,excess molar enthalpy,"413.15 K, 1307 kPa, x1 = 0.1302",0.201 ± 0.00191 kcal/mol
same,excess molar enthalpy,"413.15 K, 1307 kPa, x1 = 0.1664",0.2457 ± 0.00215 kcal/mol
same,excess molar enthalpy,"413.15 K, 1307 kPa, x1 = 0.2042",0.2863 ± 0.00239 kcal/mol
same,excess molar enthalpy,"413.15 K, 1307 kPa, x1 = 0.2438",0.325 ± 0.00263 kcal/mol
same,excess molar enthalpy,"413.15 K, 1307 kPa, x1 = 0.2853",0.359 ± 0.00287 kcal/mol
same,excess molar enthalpy,"413.15 K, 1307 kPa, x1 = 0.3288",0.3879 ± 0.00311 kcal/mol
same,excess molar enthalpy,"413.15 K, 1307 kPa, x1 = 0.3745",0.4123 ± 0.00335 kcal/mol
same,excess molar enthalpy,"413.15 K, 1307 kPa, x1 = 0.4226",0.4238 ± 0.00359 kcal/mol
same,excess molar enthalpy,"413.15 K, 1307 kPa, x1 = 0.4732",0.4338 ± 0.00359 kcal/mol
same,excess molar enthalpy,"413.15 K, 1307 kPa, x1 = 0.5265",0.4331 ± 0.00359 kcal/mol
same,excess molar enthalpy,"413.15 K, 1307 kPa, x1 = 0.5829",0.4218 ± 0.00335 kcal/mol
same,excess molar enthalpy,"413.15 K, 1307 kPa, x1 = 0.6424",0.3975 ± 0.00335 kcal/mol
same,excess molar enthalpy,"413.15 K, 1307 kPa, x1 = 0.7055",0.359 ± 0.00287 kcal/mol
same,excess molar enthalpy,"413.15 K, 1307 kPa, x1 = 0.7724",0.3014 ± 0.00263 kcal/mol
same,excess molar enthalpy,"413.15 K, 1307 kPa, x1 = 0.8435",0.2244 ± 0.00191 kcal/mol
same,excess molar enthalpy,"413.15 K, 1307 kPa, x1 = 0.9192",0.125 ± 0.00143 kcal/mol
same,excess molar enthalpy,"413.15 K, 1307 kPa, x1 = 0.9589",0.066 ± 0.0012 kcal/mol
